Experimental data published in patent US20230049917A1, “Pharmaceutical Composition of CASR Modulators and Methods and Uses Thereof” (Lupin Limited, priority 2019, published 2023).

Tests used:
[1] = biological target: human Ether-a-go-go-related gene (hERG) (Homo sapiens, UniProt Q12809); experiment: hERG liability
[2] = Phase 2 study: safety assessments (adverse events); format: in vivo, human; details: for patients who discontinued the study due to adverse drug reactions: Main Study
Protocol: For safety assessments, safety was assessed through the summary of adverse events (AE), physical examinations and electrocardiogram (ECG) measurements, vital signs (e.g., blood pressure, pulse rate, respiratory rate and body temperature), body weight and laboratory data (e.g., haemtaology, biochemistry and urinalysis). All AEs (both serious and non-serious) were derived from spontaneous, unsolicited reports of patients, by observation and by routine open questions. The AE reporting extended from date of informed consent until completion of the final visit. Any ongoing AE at EOS visit was followed until the outcome was evident and resolved, clinically stabilized or a plausible explanation was found. Pre-existing diseases including deranged laboratory values (before participating in the study) were not considered AEs, unless the disease worsened during the study period. Signs and symptoms clearly associated with the disease under study (including symptoms of disease progression) were reported as AEs if they were newly emergent, or were determined as severe or worsening, or if deterioration of disease-related signs and symptoms to be caused directly by the study drug. Physical examination, vital signs (measured in a sitting position after resting for at least 3 minutes), ECG (recorded by qualified personnel after the patient had been resting in the supine position for at least 3 minutes) and clinical laboratory examinations were done as part of safety assessments. Abnormal laboratory values/ECGs/vital signs/physical examination were reported as AEs only if the abnormality was clinically relevant or significant or believed that the abnormality must be reported as an AE. Any dose (and associated symptoms) given to the patient that exceeded the dose prescribed to the patient, at a minimum, was recorded as a non-serious AE in the patient file and CRF/electronic CRF. Any case of overdose leading to an AE or SAE had to be reported to medical monitor according to reporting requirements. In case of an accidental overdose, the patient had to be monitored by for any adverse clinical events, as deemed necessary.

[3] = First-in-human Phase 1 single- and multiple-dose study; format: in vivo; details: healthy subjects
[4] = Non-clinical studies: hypocalcaemia at efficacious doses; format: in vivo
[5] = system: iPTH; experiment: Phase 2 PK-PD Study: iPTH suppression in CKD patients with SHPT; format: in vivo, human; details: 25 mg once daily
Protocol: A randomized, double-blind, placebo-controlled phase 2 clinical study was conducted to assess the efficacy, pharmacokinetics (PK), pharmacodynamics (PD) and safety of 2-methyl-5-((2R,4S)-2-((((R)-1-(naphthalen-1-yl)ethyl)amino)methyl) chroman yl)benzoic acid, hydrochloride (Compound 3), as a monotherapy in patients with CKD with secondary hyperparathyroidism (SHPT). The patients enrolled in the study were either on dialysis or not on dialysis. Patients could continue taking doses (whether stable dosing or otherwise) of calcium supplements, phosphate binders, vitamin D, vitamin D analogues or a combination thereof for the treatment of SHPT in combination with Compound 3. Patients can take at least one calcium supplement, phosphate binder, vitamin D, vitamin D analogue or a combination thereof concurrently or concomitantly with Compound 3. Dosing for such calcium supplements, phosphate binders, vitamin D, vitamin D analogues or a combination thereof for the treatment of SHPT can be individualized based on patient's iPTH levels, and/or can correlate with doses presently used for the treatment of SHPT.
This was an open-label, non-randomized, single arm study enrolling 10 patients of which 6 patients were on dialysis and 4 were not on dialysis. All patients received 25 mg Compound 3, once daily for […], and thereafter underwent PK-PD assessments. All 6 patients (100%) on dialysis group completed the study while 2 patients out of 4 (50%) on not on dialysis group completed the study. One objective of this study were to determine PK parameters maximum concentration, time to maximum concentration, area under the curve (AUC) (AUC from time 0 up to the last quantifiable concentration; AUC from time 0 to infinity; AUC from time 0 to 24 hours), half-life, apparent clearance, and apparent volume of distribution from blood samples collected at scheduled time-points. Yet another objective of this study was to determine PD parameters mean absolute change and mean percentage change from baseline in corrected total serum calcium and phosphorus.
For efficacy assessments, the primary efficacy assessment included measurement of iPTH and the exploratory efficacy assessment included measurement of parathyroid gland size at scheduled time points. Blood samples for measurement of iPTH were collected during Day −30 to Day −1 (Screening Period); Day 1; Day 8+/−3 days; Day 15+/−3 days; Day 30+/−3 days; Day 60+/−3 days; and Day 90+/−3 days (EOT/Early Discontinuations). […] If the blood sample collected on Day 90 could not be analysed for any reason, the second blood sample had to be collected within 3 days of end of treatment (EOT). Chemiluminescence microparticles immunoassay (CMIA) (such as Abbott's ARCHITECT® Intact PTH assay) was used to quantify iPTH in serum and plasma. […]

[6] = patients not on dialysis, 5 mg BID (N = 16)
[7] = patients not on dialysis, 10 mg QD (N = 37)
[8] = patients not on dialysis, Total in Compound 3 Group (N = 71)
[9] = patients on dialysis, 10 mg QD (N = 34)
[10] = patients on dialysis, 20 mg BID (N = 19)
[11] = patients on dialysis, 25 mg QD (N = 35)
[12] = patients on dialysis, Total in Compound 3 Group (N = 88)

Chain of human Ether-a-go-go-related gene (hERG) (Q12809 whole entry): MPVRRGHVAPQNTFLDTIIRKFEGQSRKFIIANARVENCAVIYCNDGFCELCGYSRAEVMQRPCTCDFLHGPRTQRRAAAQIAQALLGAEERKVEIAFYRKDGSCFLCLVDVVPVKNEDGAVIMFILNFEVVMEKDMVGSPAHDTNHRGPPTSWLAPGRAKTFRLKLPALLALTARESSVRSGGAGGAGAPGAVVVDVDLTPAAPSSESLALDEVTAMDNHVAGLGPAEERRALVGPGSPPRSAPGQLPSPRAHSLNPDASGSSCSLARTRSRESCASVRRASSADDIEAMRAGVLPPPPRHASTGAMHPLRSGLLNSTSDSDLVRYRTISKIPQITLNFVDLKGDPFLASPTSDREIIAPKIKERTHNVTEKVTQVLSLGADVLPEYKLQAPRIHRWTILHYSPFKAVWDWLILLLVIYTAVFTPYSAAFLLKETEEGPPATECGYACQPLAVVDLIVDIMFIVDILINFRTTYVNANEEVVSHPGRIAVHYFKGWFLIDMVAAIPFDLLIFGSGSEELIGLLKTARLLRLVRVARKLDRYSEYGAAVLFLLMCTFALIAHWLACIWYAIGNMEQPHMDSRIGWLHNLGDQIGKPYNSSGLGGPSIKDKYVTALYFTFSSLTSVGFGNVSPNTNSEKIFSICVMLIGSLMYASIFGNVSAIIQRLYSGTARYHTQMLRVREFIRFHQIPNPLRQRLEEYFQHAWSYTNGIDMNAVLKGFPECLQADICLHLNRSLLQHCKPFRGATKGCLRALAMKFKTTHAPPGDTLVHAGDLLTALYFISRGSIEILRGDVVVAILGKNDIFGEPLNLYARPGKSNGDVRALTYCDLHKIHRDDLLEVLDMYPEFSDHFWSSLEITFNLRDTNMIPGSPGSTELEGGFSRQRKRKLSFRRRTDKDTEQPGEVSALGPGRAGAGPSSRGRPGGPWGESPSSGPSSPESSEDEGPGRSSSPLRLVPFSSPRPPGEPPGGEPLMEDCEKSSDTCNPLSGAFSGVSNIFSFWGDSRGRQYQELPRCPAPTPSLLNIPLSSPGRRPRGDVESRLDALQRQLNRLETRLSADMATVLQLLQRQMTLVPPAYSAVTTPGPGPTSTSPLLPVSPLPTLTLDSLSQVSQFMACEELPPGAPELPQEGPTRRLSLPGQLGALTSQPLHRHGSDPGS

hypocalcaemia [4]: No hypocalcaemia
SMILES: Cc1ccc([C@@H]2C[C@H](CN[C@H](C)c3cccc4ccccc34)Oc3ccccc32)cc1C(=O)O.Cl [Compound 3, 2-methyl-5-((2R,4S)-2-((((R)-1-(naphthalen-1-yl)ethyl)amino)methyl)chroman-4-yl)benzoic acid hydrochloride]
hERG liabilities [1]: devoid
patients with hypocalcaemia considered by the investigator to be related to the study drug ([2]; 1 patient each in 10 mg QD, 25 mg QD and 20 mg BID arms): 3 patients
symptomatic hypocalcemic effect ([2]; CKD patients, dose range 5 mg to 50 mg): no symptomatic hypocalcemic effect
patients who discontinued the study due to adverse drug reactions ([2]; not on dialysis group): None
patients who discontinued the study due to adverse drug reactions ([2]; on dialysis group): None
adverse events of hyperphosphatemia ([2]; Phase 2 study, all patients): no adverse events of hyperphosphatemia
patients experiencing adverse events of hypocalcaemia or hyperphosphatemia ([2]; patients not on dialysis): none
Adverse event incidence: Diarrhea [2, 6]: 0%
Adverse event incidence: Nausea [2, 6]: 0%
Adverse event incidence: Vomiting [2, 6]: 0%
Adverse event incidence: Diarrhea [2, 7]: 2.7%
Adverse event incidence: Nausea [2, 7]: 0%
Adverse event incidence: Vomiting [2, 7]: 0%
Adverse event incidence: Diarrhea [2, 8]: 2.7%
Adverse event incidence: Nausea [2, 8]: 0%
Adverse event incidence: Vomiting [2, 8]: 0%
Adverse event incidence: Diarrhea [2, 9]: 0%
Adverse event incidence: Nausea [2, 9]: 0%
Adverse event incidence: Vomiting [2, 9]: 0%
Adverse event incidence: Diarrhea [2, 10]: 0%
Adverse event incidence: Nausea [2, 10]: 5.3%
Adverse event incidence: Vomiting [2, 10]: 0%
Adverse event incidence: Diarrhea [2, 11]: 0%
Adverse event incidence: Nausea [2, 11]: 0%
Adverse event incidence: Vomiting [2, 11]: 0%
Adverse event incidence: Diarrhea [2, 12]: 0%
Adverse event incidence: Nausea [2, 12]: 5.3%
Adverse event incidence: Vomiting [2, 12]: 0%
safety and tolerability [3]: safe and well tolerated
peak effect on iPTH suppression from baseline ([5]; Day 1, within 4 hours of dosing, patients on dialysis and not on dialysis): > 80.0%
time of peak effect on iPTH suppression after dosing ([5]; Day 1 and Day 8): ≤ 4 h
peak effect on iPTH suppression from baseline ([5]; Day 8, within 4 hours of dosing, patients not on dialysis): > 85.0%
peak effect on iPTH suppression from baseline ([5]; Day 8, within 4 hours of dosing, patients on dialysis): > 70.0%
